Measured values from patent US4786639A, “Method for the treatment of reversible airways obstruction and asthma” (Beecham Group p.l.c., priority 1984, dated 1988).
In brackets after ≈: the same amount, converted by molar mass. Read-outs that look alike come from different tables or passages of the source.

Experiments:
[1] = test system: conscious guinea-pig; assay: Guinea pig asphyxic collapse model in vivo (histamine aerosol); design: species or system guinea pig (female Dunkin-Hartley); conditions: 5 mg/kg p.o., 30 min pretreatment, control 90 ± 10
Description: This model is based on the method described by Herxheimer (Br.J.Pharm.50, 314 (1974)]. Conscious female guinea pigs (Dunkin-Hartley strain, 500-700 g body weight) were placed individually into a Perspex chamber of approximately 8 litres capacity, and the animals were challenged with an histamine aerosol. The standard histamine aerosol was generated using a Monaghan 675 ultrasonic nebulizer (power setting 7) from a 5×10^-5 m solution of histamine acid phosphate in distilled water. After obtaining satisfactory aerosol generation, the aerosol was passed into the chamber for 10 seconds and the time was recorded from introduction of the aerosol until the guinea pig collapsed (termed asphyxic collapse). The animal was rapidly removed and allowed to recover. In this way, the mean time to asphyxic collapse for a group of guinea pigs was determined.
Compounds were administered orally to groups of animals and the degree of protection against histamine-induced asphyxic collapse was determined by the percentage increase in mean time to asphyxic collapse of a compound-treated group to asphyxic collapse for control groups was around 80-100 seconds. […]
The significance of any increase in the mean asphyxic collapse time of a compound-treated group of animals over that of a vehicle-treated control group was determined using students "t" test. […]

[2] = test system: Rat isolated colon; assay: Rat isolated colon: inhibition of spontaneous contractions; design: species or system rat (male Wister); conditions: 10 min, cumulative dosing at 10 min intervals, graphically determined, read-out: ID50 (concentration reducing amplitude of spontaneous contractions by 50%)
Description: Rat isolated colon. Male Wister rats (Charles River U.K.) were killed by a blow on the head and a 2 cm segment of proximal colon excised. After gently washing free any luminal contents the tissue was suspended longitudinally in a 10 ml organ bath containing Krebs solution of the following composition: NaCl 118.1 mM, KH2 PO4 1.18 mM, NaHCO3 25 mM, KCl 4.69 mM, MgSO4 1.64 mM, CaCl2 2.52 mM, Glucose 11.1 mM. This solution was maintained at 37° C. and constantly bubbled with 95% O2 : 5% CO2. Isometric contractions were recorded from the tissue with an initial tension of 1 g being applied.
The inhibitory effects of compounds 1+2 were assessed from the reduction in amplitude of the spontaneous contractions of the colon. Cumulative dose-response curves were constructed with the compounds being applied to the bath at intervals of 10 mins. ID50 (concentration of drug reducing amplitude of contractions by 50%) was graphically determined from the dose-response curve.
Rat isolated colon : effect of compounds 1 and 2 on spontaneous contractions

[3] = test system: potassium depolarised rat uterus; assay: Relaxation of potassium depolarised rat uterus; design: species or system rat (female Sprague Dawley); conditions: 7 preparations, relative to full relaxation with isoprenaline, read-out: % maximum relaxation
Description: Relaxation of Potassium Depolarised Rat Uterus
Female Sprague Dawley rats (120-160 g) were sacrificed and the uterine horns removed. Each horn was cut longitudinally to give a sheet of muscle which was further subdivided to give two preparations (i.e. 4 from each animal). Each tissue was mounted in a 10 ml organ bath containing normal Krebs buffer at 32° C. and gassed with 95% O2 -5% CO2. During an equilibration period of approximately 45 min the tissues were repeatedly stretched and washed to maintain a resting tension of 0.2 g. An increase in tension was induced by exchanging the Krebs buffer for one in which the sodium ions were replaced by the equivalent amount of potassium ions.
This caused the tissues to contract followed by a slow relaxation which equilibrated at a level above the initial resting level. A cumulative concentration effect curve to compound 1 was then carried out until the response to the final bath concentration (10^-4 M) had stabilised. Incremental concentrations of isoprenaline were then added until the tissues had fully relaxed. Results are expressed as a percentage of this maximum relaxation.
7 preparations were used.

[4] = test system: Rat isolated portal vein; assay: Rat isolated portal vein: inhibition of spontaneous contractions and of contractions due to added calcium; design: species or system rat (male Sprague Dawley); conditions: for IC50: Rattus norvegicus, 0.25 h, 15 min contact time, 6-9 tissues, 95% fiducial limits in next line
Description: (1) Rat isolated portal vein. Male Sprague Dawley rats (250-350 g) were killed by cervical dislocation. Portal veins (2-3cm in length) were set up under 0.8-1 g tension in a 10 ml organ bath containing Krebs-Henseleit solution, at 37° C., of the following composition (mM): NaCl 118, NaHCO3 25, glucose 5, KH2 PO4 1.18, KCl 4.69, MgSO4 0.59, CaCl2.H2 O 1.87. The tissue was aerated with a 95% oxygen and 5% carbon dioxide mixture. Isometric tension was recorded using a Devices strain gauge and recorder. Each preparation was allowed 1h to equilibrate before the addition of test compound. The ability of a compound to inhibit the contractions due to added calcium (3 mM CaCl2) was determined in tissues bathed in Krebs-Henseleit solution containing 0.05 mM CaCl2 (in order to reduce spontaneous contractions). Then percentage inhibition (mean ±s.e.m.; 6-9 tissues) of the amplitude of the spontaneous contractions, and contractions due to added calcium, was determined after 15 min contact time with test compound.
(1) Rat Isolated Portal Vein: effect of compound 1 on spontaneous contractions and those due to added calcium.
IC50 is concentration of compound reducing contractions by 50%; parenthesis indicate 95% fiducial limits.

[5] = test system: Rabbit isolated mesenteric artery; assay: Rabbit isolated mesenteric artery: relaxation of contractions due to KCl; design: species or system rabbit (male New Zealand White); conditions: for IC50: Oryctolagus cuniculus, 4-9 tissues
Description: (2) Rabbit isolated mesenteric artery. Mesenteric arteries (3 mm rings) were removed from male New Zealand White rabbits and mounted, at a resting tension of 1.5-2.0 g, in a 10 ml organ bath containing a Ringer solution, at 37° C., of the following composition (mM): NaCl 120.8; KCl 5.9; CaCl2 2.5; MgCl2 1.2; HEPES 5.8; glucose 11.5. The bathing solution was bubbled with a 95% oxygen and 5% carbon dioxide mixture. Each preparation was allowed 1-11/2 h to equilibrate before the addition of either 30 or 90 mM KCl to contract the tissue. The ability of test compound to relax the sustained contraction due to KCl was determined by assessing the % reduction (mean ±s.e.m.; 4-9 tissues) produced by varying concentrations of test compound.
(2) Rabbit Isolated Mesenteric Artery: effect of compound 1 on contractions due to 30 and 90 mM KCl.
IC50 is the concentration of compound 1 halving the contraction due to KCl; parenthesis indicate 95% fiducial limits.

Structure (SMILES) | Mean collapse time ([1]; N=4, **p < 0.01) [s] | IC50 [2] [µg/mL] | activation at 100 µM ([3]; 1 × 10^-4 M) [%] | activation at 10 µM ([3]; 1 × 10^-5 M) [%] | activation at 30 µM ([3]; 3 × 10^-5 M) [%] | activation at 3 µM ([3]; 3 × 10^-6 M) [%] | IC50 ([4]; contractions due to added calcium (3 mM CaCl2), read-out: IC50 Ca^2+ (3 mM) contractions) [nM] | IC50 ([4]; spontaneous contractions, read-out: IC50 Spontaneous contractions) [nM] | relative potency, spontaneous contractions vs those due to added calcium ([4]; spontaneous contractions and those due to added calcium) | IC50 ([5]; 30 mM KCl, 95% fiducial limits in next line, read-out: IC50 30 mM KCl contraction) [nM] | IC50 ([5]; 90 mM KCl, read-out: IC50 90 mM KCl contraction) [nM] | effect against a high concentration of KCl ([5]; high concentration of KCl) | antagonism of contractions due to potassium ([5]; partially (low KCl) vs fully (high KCl) depolarising concentration) | Mean collapse time ([1]; N=5, *p < 0.05) [s]
CCN(C(C)=O)[C@@H]1c2cc(C#N)ccc2OC(C)(C)[C@H]1O (relative stereo) [Compound 4, trans-4-(N-acetyl)-ethylamino-6-cyano-3,4-dihydro-2,2-dimethyl-2H-benzo[b]pyran-3-ol] | 176 ± 25 | – | – | – | – | – | – | – | – | – | – | – | – | –
CC1(C)Oc2ccc(Cl)cc2[C@@H](N2CCCC2=O)[C@@H]1O (relative stereo) [Compound 2, 6-chloro-3,4-dihydro-2,2-dimethyl-trans-4-(2-oxo-1-pyrrolidinyl)-2H-benzo[b]pyran-3-ol] | – | 1.7 (≈ 5.75 µM) | – | – | – | – | – | – | – | – | – | – | – | –
CC1(C)Oc2ccc(C#N)cc2[C@@H](N2CCCC2=O)[C@@H]1O (relative stereo) [Compound 1, 6-cyano-3,4-dihydro-2,2-dimethyl-trans-4-(2-oxo-1-pyrrolidinyl)-2H-benzo[b]pyran-3-ol] | – | 0.12 (≈ 0.419 µM) | 61 ± 6 | 18 ± 3 | 31 ± 3 | 6 ± 2 | 150 | 120 | equipotent | 510 | > 10000 | effectiveness of compound 1 against a high concentration of KCl | antagonises the contractions due to a partially, but not a fully, depolarising concentration of potassium | 154 ± 26
